Data reported in PubChem BioAssay (NCI).
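Five concentrations, 48 hours, 96-well plates. TGI denotes the concentration required for complete inhibition of growth.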

Experiments:
Test in all cases: DTP human tumour cell line panel, 48 h
[1] = system: 786-0 renal
[2] = system: A498 renal
[3] = system: A549 NSCLC
[4] = system: ACHN renal
[5] = system: BT-549 breast
[6] = system: CAKI-1 renal
[7] = system: CCRF-CEM leukemia
[8] = system: COLO 205 colon
[9] = system: DU-145 prostate
[10] = system: EKVX NSCLC
[11] = system: HCC-2998 colon
[12] = system: HCT-116 colon
[13] = system: HCT-15 colon
[14] = system: HL-60(TB) leukemia
[15] = system: HOP-62 NSCLC
[16] = system: HOP-92 NSCLC
[17] = system: HS 578T breast
[18] = system: HT29 colon
[19] = system: IGROV1 ovarian
[20] = system: K-562 leukemia
[21] = system: KM12 colon
[22] = system: LOX IMVI melanoma
[23] = system: M14 melanoma
[24] = system: MALME-3M melanoma
[25] = system: MCF7 breast
[26] = system: MDA-MB-231 breast
[27] = system: MDA-MB-435
[28] = system: MOLT-4 leukemia
[29] = system: NCI-H23 lung
[30] = system: NCI-H460 lung
[31] = system: NCI-H522 lung
[32] = system: NCI/ADR-RES ovarian
[33] = system: OVCAR-3 ovarian
[34] = system: OVCAR-4 ovarian
[35] = system: OVCAR-5 ovarian
[36] = system: OVCAR-8 ovarian
[37] = system: PC-3 prostate
[38] = system: RPMI-8226 leukemia
[39] = system: RXF 393 renal
[40] = system: SF-268 CNS
[41] = system: SF-295 CNS
[42] = system: SK-MEL-2 melanoma
[43] = system: SK-MEL-28 melanoma
[44] = system: SK-MEL-5 melanoma
[45] = system: SK-OV-3 ovarian
[46] = system: SN12C renal
[47] = system: SNB-19 CNS
[48] = system: SNB-75 CNS
[49] = system: SW-620 colon
[50] = system: T-47D breast
[51] = system: TK-10 renal
[52] = system: U251 CNS
[53] = system: UACC-257 melanoma
[54] = system: UACC-62 melanoma
[55] = system: UO-31 renal

Measured: TGI

CN(C)c1ccc(/C=C2\N=C(c3ccccc3)N(c3nc4ccc(Sc5ccccc5)cc4[nH]3)C2=O)cc1
82.4 µM: [54]
33.3 µM: [14]
49.2 µM: [45]
71.4 µM: [38]
96.6 µM: [20]
90.9 µM: [53]
72.2 µM: [41]
33.5 µM: [11]
85.3 µM: [32]
81.3 µM: [51]
59.3 µM: [33]
45.9 µM: [8]
> 100 µM: [1] | [2] | [3] | [4] | [5] | [6] | [7] | [9] | [10] | [12] | [13] | [15] | [16] | [17] | [18] | [19] | [21] | [22] | [23] | [24] | [25] | [26] | [28] | [29] | [30] | [31] | [34] | [35] | [36] | [37] | [39] | [40] | [43] | [44] | [46] | [47] | [48] | [49] | [50] | [52] | [55]
60.3 µM: [42]
38.6 µM: [27]
